What was measured:
Type in all cases: organism-based
Details in all cases: in vivo
Plutella xylostella [1] = test: Toxicity in Plutella xylostella larvae after 72 hrs
Plutella xylostella [2] = test: Toxicity in Plutella xylostella larvae after 96 hrs
Plutella xylostella [3] = test: Toxicity in Plutella xylostella larvae after 48 hrs
Plutella xylostella [4] = test: Toxicity in Plutella xylostella larvae after 24 hrs

Row | SMILES | LD50 (Plutella xylostella [1]) [µg/g] | LD50 (Plutella xylostella [2]) [µg/g] | LD50 (Plutella xylostella [3]) [µg/g] | LD50 (Plutella xylostella [4]) [µg/g]
1 | C/C=C(\C)C(=O)O[C@H]1C[C@@H](OC(C)=O)[C@@]2(C(=O)OC)CO[C@H]3[C@@H](O)[C@@](C)([C@]45O[C@@]4(C)[C@H]4C[C@@H]5O[C@@H]5OC=C[C@@]54O)[C@@H]4[C@@H](O)OC[C@@]14[C@@H]32 | 1.38 | 0.75 | 4.2 | 5.75
2 | C/C=C(\C)C(=O)O[C@H]1C[C@@H](OC(C)=O)[C@@]2(C(=O)OC)CO[C@H]3[C@@H](O)[C@@](C)([C@]45O[C@@]4(C)[C@@H]4C[C@H]5O[C@@H]5OC=C[C@@]54O)[C@H]4[C@]1(CO[C@]4(O)C(=O)OC)[C@@H]32 [AZADIRACHTIN A] | 1.28 | 0.87 | 4.12 | 7.04
3 | C/C=C(\C)C(=O)O[C@@H]1C[C@H](O)[C@]23CO[C@H](C(=O)OC)[C@H]2[C@](C)([C@]24O[C@@]2(C)[C@H]2C[C@@H]4O[C@@H]4OC=C[C@@]42O)[C@H](O)[C@@H]2OC[C@@]1(C(=O)OC)[C@H]23 [AZADIRACHTIN B] | 1.56 | 1.06 | 2.26 | 4.85
4 | C/C=C(\C)C(=O)O[C@H]1C[C@@H](OC(C)=O)[C@@]2(C(=O)OC)CO[C@H]3[C@@H](O)[C@@](C)([C@]45O[C@@]4(C)[C@H]4C[C@@H]5O[C@@H]5OC=C[C@@]54O)[C@@H]4[C@@H](OC(C)=O)OC[C@@]14[C@@H]32 [AZADIRACHTIN L] | 5.39 | 1.92 | 7.89 | 10.27
5 | C/C=C(\C)C(=O)O[C@H]1C[C@@H](OC(C)=O)[C@@]2(C(=O)OC)CO[C@H]3[C@@H](O)[C@@](C)([C@]45O[C@@]4(C)[C@H]4C[C@@H]5O[C@@H]5OC=C[C@@]54O)[C@@H]4[C@@H](C(=O)OC)OC[C@@]14[C@@H]32 [AZADIRACHTIN M] | 4.23 | 1.3 | 4.84 | 8.46
6 | COC(=O)[C@H]1OC[C@@]23[C@@H](OC(=O)CC(C)C)C[C@@H](OC(C)=O)[C@@]4(C(=O)OC)CO[C@@H]([C@@H](O)[C@@](C)([C@]56O[C@@]5(C)[C@H]5C[C@@H]6O[C@@H]6OC=C[C@@]65O)[C@H]12)[C@@H]43 [AZADIRACHTIN O] | 1.19 | 0.79 | 1.92 | 3.92
7 | COC(=O)[C@@]12CO[C@H]3[C@@H](O)[C@@](C)([C@]45O[C@@]4(C)[C@H]4C[C@@H]5O[C@@H]5OC=C[C@@]54O)[C@@H]4[C@@H](O)OC[C@]4([C@@H](OC(=O)CC(C)C)C[C@H]1OC(C)=O)[C@@H]32 [AZADIRACHTIN P] | 1.19 | 0.79 | 1.73 | 2.19
8 | COC(=O)[C@H]1OC[C@@]23[C@@H](OC(C)=O)C[C@@H](OC(C)=O)[C@@]4(C(=O)OC)CO[C@@H]([C@@H](O)[C@@](C)([C@]56O[C@@]5(C)[C@H]5C[C@@H]6O[C@@H]6OC=C[C@@]65O)[C@H]12)[C@@H]43 [AZADIRACHTIN Q] | 1.4 | 1.1 | 1.89 | 5.95
9 | COC(=O)[C@H]1OC[C@]23[C@@H]1[C@](C)([C@]14O[C@@]1(C)[C@H]1C[C@@H]4O[C@@H]4OC=C[C@@]41O)[C@H](O)[C@@H]1OC[C@](C(=O)OC)([C@H](O)C[C@@H]2O)[C@H]13 [AZADIRACHTOL] | 2.35 | 1.78 | 3.28 | 4.88
